Measurements from PMC9728921, “Characterization of a KDM5 small molecule inhibitor with antiviral activity against hepatitis B virus” (PLOS ONE, 2022).

Columns and labels:
[1] = Liver to plasma AUC ratio, cynomolgus monkey; type: in vivo, cynomolgus monkeys; details: male, liver and plasma, po, 2.5 mg/kg, read-out: GS-080 liver to plasma AUC ratio
Procedure: Rats and monkeys were dosed by oral gavage once with 1 mg/kg or 2.5 mg/kg, respectively. The rat study included a vehicle control group (water). Serial venous blood samples were taken at 0, 0.25, 0.5, 1, 2, 4, 6, 8, 12, and 24 hours post dose from each animal and collected into vacutainer tubes containing potassium oxalate/sodium fluoride (Thermo Fisher; BD367925) as the anti-coagulant and blood was centrifuged for plasma isolation. […] For monkey, liver samples were taken by biopsy at pre-dose, 1, 4, 24, 48, and 72 hours post dose (n = 2 per time point). Rat and monkey livers were weighed and immediately flash frozen in liquid nitrogen.
500 μL of cold HPLC grade water was added to each monkey liver biopsy sample and rat liver samples were diluted 3-fold with cold HPLC grade water. Diluted liver samples were homogenized between 1 and 3 minutes. 50 μL of plasma samples and homogenized liver samples were quenched with 200 μL of 0.05% formic acid in acetonitrile. […] An Agilent 1200 series binary pump (Santa Clara, CA; G1312A) was used for elution and separation of compounds with a Hypersil Gold C18 HPLC column (Thermo Fisher; 50 x 3.0 mm, 5 μm) over 6.75 minutes with 99–3% gradient of Mobile Phase A (1% acetonitrile in 2.5 mM ammonium formate aqueous solution pH 2.6) and 1–97% gradient Mobile Phase B (90% acetonitrile in aqueous 10 mM ammonium formate pH 6.8).

SETDB1 = molecular target: T1, SETDB1 (Homo sapiens, UniProt Q15047); experiment: Histone methyltransferase enzymatic assay, SETDB1; type: biochemical; details: enzyme conc. 100 nM
T1 construct: 510-1290
Procedure: (§1) Histone methyltransferase assays were performed in 96-well half-area optiplates (PerkinElmer) at room temperature. All concentrations are final unless noted otherwise. Compounds were serially diluted in DMSO and the final DMSO concentration was 1%. A 24 μL reaction mixture contained compound, enzyme, 200 nM of nucleosome or histone substrate, 400 nM ^3H-SAM (83.1 Ci/mmol), 50 mM Tris-HCl (pH 8.0), 50 mM NaCl, 5 mM MgCl2, 1 mM DTT, and 0.01% Tween-20. The plate was sealed, mixed on a Titramax plate shaker at 1200 rpm for 30 sec, and incubated at room temperature for 60 min. The reaction was quenched by addition of 24 μL mixture containing 5 mg/mL PVT-PEI beads and 300 μM unlabeled SAM in water. The plate was sealed, mixed as previously noted, incubated overnight, and read on a TopCount plate reader (PerkinElmer).
(§2) Data was analyzed using GraphPad Prism 6.0 (La Jolla, CA). […] IC50 values were calculated as an average of at least two independent experiments.

KDM5C = KDM5C (Homo sapiens, UniProt P41229); experiment: KDM5C enzymatic assay (AlphaLISA); type: biochemical
KDM5C, sequence (P41229 whole entry): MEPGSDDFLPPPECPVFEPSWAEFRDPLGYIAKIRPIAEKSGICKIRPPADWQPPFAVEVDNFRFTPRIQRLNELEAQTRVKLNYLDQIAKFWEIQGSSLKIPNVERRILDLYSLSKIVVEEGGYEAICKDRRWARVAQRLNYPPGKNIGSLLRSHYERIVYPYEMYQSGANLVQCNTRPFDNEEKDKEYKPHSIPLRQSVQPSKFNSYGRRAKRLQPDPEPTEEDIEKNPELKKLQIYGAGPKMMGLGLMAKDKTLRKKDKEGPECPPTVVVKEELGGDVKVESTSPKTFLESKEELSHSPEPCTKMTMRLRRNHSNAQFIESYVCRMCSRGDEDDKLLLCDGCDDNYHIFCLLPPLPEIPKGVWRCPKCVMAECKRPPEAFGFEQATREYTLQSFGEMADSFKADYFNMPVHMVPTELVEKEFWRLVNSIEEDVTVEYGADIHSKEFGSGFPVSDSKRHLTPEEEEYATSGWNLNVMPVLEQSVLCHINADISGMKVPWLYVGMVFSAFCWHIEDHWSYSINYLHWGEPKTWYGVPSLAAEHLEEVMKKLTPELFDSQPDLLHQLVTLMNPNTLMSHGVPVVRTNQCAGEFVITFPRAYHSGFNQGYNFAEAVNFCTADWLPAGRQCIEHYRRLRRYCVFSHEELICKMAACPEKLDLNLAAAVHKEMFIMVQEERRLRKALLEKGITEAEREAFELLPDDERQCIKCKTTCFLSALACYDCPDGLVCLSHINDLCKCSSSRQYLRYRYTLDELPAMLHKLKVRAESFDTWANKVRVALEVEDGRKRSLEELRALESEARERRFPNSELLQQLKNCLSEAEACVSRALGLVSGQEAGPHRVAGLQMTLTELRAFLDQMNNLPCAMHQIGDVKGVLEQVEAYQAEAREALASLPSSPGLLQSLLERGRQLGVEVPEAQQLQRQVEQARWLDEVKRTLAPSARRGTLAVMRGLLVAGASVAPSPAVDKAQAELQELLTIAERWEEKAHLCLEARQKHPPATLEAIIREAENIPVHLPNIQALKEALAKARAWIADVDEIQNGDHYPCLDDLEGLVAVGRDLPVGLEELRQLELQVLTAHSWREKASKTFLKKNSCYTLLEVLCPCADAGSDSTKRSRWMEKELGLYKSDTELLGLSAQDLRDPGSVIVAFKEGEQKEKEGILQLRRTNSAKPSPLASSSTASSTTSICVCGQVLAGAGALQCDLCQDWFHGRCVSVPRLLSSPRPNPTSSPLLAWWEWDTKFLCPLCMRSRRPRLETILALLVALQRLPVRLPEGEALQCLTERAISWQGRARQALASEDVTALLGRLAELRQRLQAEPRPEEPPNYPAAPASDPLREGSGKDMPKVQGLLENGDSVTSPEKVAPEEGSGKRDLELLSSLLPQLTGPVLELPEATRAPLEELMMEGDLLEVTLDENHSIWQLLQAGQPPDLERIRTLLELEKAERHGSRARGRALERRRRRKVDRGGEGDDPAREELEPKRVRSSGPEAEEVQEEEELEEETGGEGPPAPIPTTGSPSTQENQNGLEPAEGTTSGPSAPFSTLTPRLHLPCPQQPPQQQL
Procedure: (§3) The following assay protocol was used for all histone demethylases tested except KDM1A, KDM5A, B, and D, which are described below. Compounds were serially diluted into a 384-well Alpha plate as a DMSO solution and mixed with 5 μL reaction buffer (buffer A) containing 50 mM HEPES (pH 7.0), 0.1% BSA, and 0.003% Tween-20. The enzyme of interest was pre-incubated with 15 μM of Fe^2+ for 10 min (except 30 min for KDM2B) in reaction buffer A. 5 μL of the enzyme mixture was added to each of the compound-containing wells and incubated for 10 min. The reaction was started by addition of a 5 μL mixture containing 300 nM peptide substrate, 75 μM L-ascorbic acid, and 30 μM α-ketoglutarate in buffer A. This final 15 μL of reaction mixture was incubated for 20 min for KDM5B and 1 hour for the other KDM enzymes. The reaction was quenched with 10 μL of diluted AlphaLISA Acceptor beads (1:400) in Epigenetics Buffer and incubated for 60 min. The Donor beads were diluted 1:400 into Epigenetics Buffer in the dark and 10 μL of this was added to each well and incubated for another 60 min in the dark. The assay plates were read on an Enspire plate reader (PerkinElmer) using a standard AlphaLISA program.
as §2

PRMT1 = molecular target: T2, PRMT1 (Homo sapiens, UniProt Q99873); experiment: Histone methyltransferase enzymatic assay, PRMT1; type: biochemical; details: enzyme conc. 100 nM
T2 construct: 2-371
T2 sequence (Q99873 2-371): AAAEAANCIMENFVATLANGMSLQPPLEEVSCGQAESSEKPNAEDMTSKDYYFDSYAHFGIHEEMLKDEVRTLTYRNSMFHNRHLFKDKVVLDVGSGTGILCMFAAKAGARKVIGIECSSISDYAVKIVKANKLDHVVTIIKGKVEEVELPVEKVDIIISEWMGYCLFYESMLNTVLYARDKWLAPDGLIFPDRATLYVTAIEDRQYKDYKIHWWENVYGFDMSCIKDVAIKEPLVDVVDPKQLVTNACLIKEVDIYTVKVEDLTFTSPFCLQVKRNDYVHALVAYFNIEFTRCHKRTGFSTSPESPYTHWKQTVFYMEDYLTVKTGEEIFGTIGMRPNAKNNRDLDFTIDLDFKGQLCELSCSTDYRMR
Procedure: as §1, §2

KDM3A = KDM3A (Homo sapiens, UniProt Q9Y4C1); experiment: KDM3A enzymatic assay (AlphaLISA); type: biochemical
KDM3A, sequence (Q9Y4C1 whole entry): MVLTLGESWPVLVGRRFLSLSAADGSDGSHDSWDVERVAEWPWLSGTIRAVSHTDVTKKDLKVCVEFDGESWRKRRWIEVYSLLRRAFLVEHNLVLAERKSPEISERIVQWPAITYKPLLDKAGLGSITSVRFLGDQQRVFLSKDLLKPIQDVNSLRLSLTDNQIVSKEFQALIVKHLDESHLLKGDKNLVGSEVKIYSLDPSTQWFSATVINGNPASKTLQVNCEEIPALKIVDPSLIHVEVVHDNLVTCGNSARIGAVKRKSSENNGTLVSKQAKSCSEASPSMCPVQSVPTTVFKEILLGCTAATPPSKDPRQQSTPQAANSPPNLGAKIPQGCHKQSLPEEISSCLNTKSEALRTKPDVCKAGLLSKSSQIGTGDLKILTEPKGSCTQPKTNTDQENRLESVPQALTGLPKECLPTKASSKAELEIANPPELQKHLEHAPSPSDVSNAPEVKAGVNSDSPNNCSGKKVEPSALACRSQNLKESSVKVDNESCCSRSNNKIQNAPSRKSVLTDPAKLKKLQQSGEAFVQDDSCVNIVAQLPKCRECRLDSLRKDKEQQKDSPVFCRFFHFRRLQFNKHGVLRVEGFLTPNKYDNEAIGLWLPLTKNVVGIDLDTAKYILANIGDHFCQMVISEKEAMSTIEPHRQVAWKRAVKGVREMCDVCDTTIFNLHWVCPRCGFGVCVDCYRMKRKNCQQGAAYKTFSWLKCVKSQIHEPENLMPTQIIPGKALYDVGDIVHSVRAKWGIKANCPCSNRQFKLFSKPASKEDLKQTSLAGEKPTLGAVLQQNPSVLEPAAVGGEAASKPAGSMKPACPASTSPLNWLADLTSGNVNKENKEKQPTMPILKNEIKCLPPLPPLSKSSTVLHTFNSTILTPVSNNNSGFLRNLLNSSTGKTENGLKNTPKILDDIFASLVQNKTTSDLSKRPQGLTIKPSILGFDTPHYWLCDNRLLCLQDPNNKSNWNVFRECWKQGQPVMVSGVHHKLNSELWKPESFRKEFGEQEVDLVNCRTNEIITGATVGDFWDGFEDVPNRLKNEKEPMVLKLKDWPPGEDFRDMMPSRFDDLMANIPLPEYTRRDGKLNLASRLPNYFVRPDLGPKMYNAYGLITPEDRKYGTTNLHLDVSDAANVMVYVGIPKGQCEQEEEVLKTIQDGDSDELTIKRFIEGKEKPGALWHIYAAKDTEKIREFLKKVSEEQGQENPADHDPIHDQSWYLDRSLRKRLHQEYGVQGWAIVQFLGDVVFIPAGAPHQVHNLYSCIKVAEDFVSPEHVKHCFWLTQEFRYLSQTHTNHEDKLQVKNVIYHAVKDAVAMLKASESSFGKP
Procedure: as §3, §2

KDM5D = molecular target: T3, KDM5D (Homo sapiens, UniProt Q9BY66); experiment: KDM5D enzymatic assay (LANCE TR-FRET); type: biochemical; details: IC50 of KDM5D over KDM5A
T3 construct: purchased Eurofins Cerep SA (assay run there as a contract service)
T3 sequence (Q9BY66 whole entry): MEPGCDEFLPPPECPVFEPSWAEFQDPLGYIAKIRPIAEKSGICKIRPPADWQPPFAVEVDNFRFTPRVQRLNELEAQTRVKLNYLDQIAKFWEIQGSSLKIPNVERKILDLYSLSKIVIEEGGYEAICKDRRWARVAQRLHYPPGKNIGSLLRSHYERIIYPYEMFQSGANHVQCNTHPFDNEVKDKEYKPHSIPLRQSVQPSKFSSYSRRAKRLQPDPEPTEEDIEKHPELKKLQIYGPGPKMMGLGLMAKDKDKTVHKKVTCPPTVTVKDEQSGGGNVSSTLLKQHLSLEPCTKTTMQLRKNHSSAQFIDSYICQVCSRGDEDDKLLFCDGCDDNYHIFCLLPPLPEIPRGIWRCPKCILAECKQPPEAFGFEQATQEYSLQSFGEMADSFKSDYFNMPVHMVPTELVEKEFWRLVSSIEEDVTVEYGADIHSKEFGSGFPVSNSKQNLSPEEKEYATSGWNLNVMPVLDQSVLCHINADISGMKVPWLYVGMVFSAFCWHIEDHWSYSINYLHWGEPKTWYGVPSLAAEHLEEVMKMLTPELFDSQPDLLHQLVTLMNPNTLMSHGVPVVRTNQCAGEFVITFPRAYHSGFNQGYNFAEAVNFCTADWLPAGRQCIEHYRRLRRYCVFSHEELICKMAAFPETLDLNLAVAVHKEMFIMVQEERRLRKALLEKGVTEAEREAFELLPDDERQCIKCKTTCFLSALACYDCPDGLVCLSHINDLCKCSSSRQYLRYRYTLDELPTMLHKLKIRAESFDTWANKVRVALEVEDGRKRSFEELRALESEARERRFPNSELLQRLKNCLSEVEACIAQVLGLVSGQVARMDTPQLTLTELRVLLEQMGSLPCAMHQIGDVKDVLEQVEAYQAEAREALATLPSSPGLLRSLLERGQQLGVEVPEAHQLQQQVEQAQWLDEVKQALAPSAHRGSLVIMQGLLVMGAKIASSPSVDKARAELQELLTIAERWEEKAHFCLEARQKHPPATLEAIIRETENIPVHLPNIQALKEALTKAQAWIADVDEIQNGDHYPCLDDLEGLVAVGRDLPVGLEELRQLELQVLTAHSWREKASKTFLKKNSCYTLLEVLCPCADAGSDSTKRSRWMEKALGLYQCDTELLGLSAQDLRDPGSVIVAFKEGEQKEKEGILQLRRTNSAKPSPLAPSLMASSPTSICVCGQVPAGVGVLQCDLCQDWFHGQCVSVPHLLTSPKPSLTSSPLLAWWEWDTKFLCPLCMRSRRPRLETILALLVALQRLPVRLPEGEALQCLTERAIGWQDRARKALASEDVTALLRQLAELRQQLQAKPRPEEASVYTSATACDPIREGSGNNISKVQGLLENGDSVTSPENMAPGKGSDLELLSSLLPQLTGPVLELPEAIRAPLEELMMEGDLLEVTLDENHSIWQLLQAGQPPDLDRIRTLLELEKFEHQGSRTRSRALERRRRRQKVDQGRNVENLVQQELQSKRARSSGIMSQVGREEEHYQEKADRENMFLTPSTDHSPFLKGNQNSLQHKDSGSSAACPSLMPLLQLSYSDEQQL
Procedure: KDM5D was tested using a LANCE TR-FRET assay by Eurofins Cerep SA (France). All concentrations were final unless noted otherwise. Inhibitors were added to a mixture containing 45 mM HEPES/Tris-HCl (pH 7.5), 5 μM ferrous ammonium sulfate, 100 μM ascorbic acid, 10 μM 2-oxoglutarate, 0.01% Tween 20, 0.01% BSA, and 10 ng of enzyme, followed by addition of 100 nM biotin-H3K4me3 substrate. The 10 μL reaction mixture was incubated for 10 min at room temperature and quenched through the addition of 1 mM EDTA to reach a final concentration of 0.33 mM EDTA. After 5 min, the Eu-labeled anti-methyl histone H3K4me1-2 antibody and the Ulight streptavidin were added, and the mixture was incubated for 60 min. The fluorescence resonance energy transfer was measured using an excitation wavelength of 320 nm and emission wavelengths of 620 nm and 665 nm on an Envision plate reader (Perkin Elmer).
as §2

NSD2 = molecular target: T4, NSD2 (Homo sapiens, UniProt O96028); experiment: Histone methyltransferase enzymatic assay, NSD2; type: biochemical; details: enzyme conc. 10 nM
T4 construct: Full Length; purchased RBC (read as Reaction Biology Corporation, named)
Procedure: as §1, §2

Kp [1]: 176 | IC50 (SETDB1): > 100000 nM | Fold Selectivity Compared to KDM5A (KDM5C; IC50 of KDM5C over KDM5A): 10 fold | IC50 (KDM5C; enzyme concentration 1 nM): 3.7 nM | IC50 (PRMT1): > 100000 nM | Fold Selectivity Compared to KDM5A (KDM3A; IC50 of KDM3A over KDM5A): > 4,720 fold | IC50 (KDM3A; enzyme concentration 0.3 nM): 1700 nM | Fold Selectivity Compared to KDM5A (KDM5D): 183 fold | IC50 (NSD2): > 100000 nM
Compound: CCN(CCN(C)C)C(=O)CNCc1cc(C(=O)O)ccn1 [GS-080]
